# Data: paper PMC8291126, “Functional Characterization of Ecdysis Triggering Hormone Receptors (AgETHR-A and AgETHR-B) in the African Malaria Mosquito, Anopheles gambiae” (Frontiers in Physiology, 2021)
# Assays:
# AgETHR-B = assay: Calcium mobilization assay (aequorin luminescence) with heterologously expressed AgETHR-B; assay type: cell-based, Anopheles gambiae; conditions: for agonistic activity normalized by the activity of AgETH2 / response of AgETHR-B relative to other ETHs (in words) / concentration of maximum response (at the level over) / lowest activating concentration (receptor not activated lower than) / response/sensitivity of AgETHR-B to own ETHs (in words): AgETHR-B; for agonistic activity normalized by the activity of AgETH2: CHO cells, normalized to AgETH2; for response of AgETHR-B relative to other ETHs (in words): 0.1 μm; for EC50: AgETHR-B in CHO cells, calcium mobilization, luminescence integrated 20 s, at least three replicates; for higher sensitivity of AgETHR-B than AgETHR-A: AgETHR-B vs. AgETHR-A, calcium mobilization assay; for concentration of maximum response (at the level over) / lowest activating concentration (receptor not activated lower than) / response/sensitivity of AgETHR-B to own ETHs (in words): dose-response
# Text: (§1) We tested different synthetic insect neuropeptides with PRXamide, including four groups: ETH, pyrokinin1/DH, pyrokinin2/PBAN, and CAPA. The following synthetic peptides were utilized to investigate selectivity and sensitivity of each AgETHR-A and AgETHR-B; AgETH1 (SESPGFIKLSKSVPRIa, NEOBiolab, United States), AgETH2 (GDLENFFLKQSKSVPRIa, GenScript United States Inc.), TcETH1 (ENYVLKAAKNVPRIa), TcETH2 (FFMKASKSVPRIa), TcPK1-1 (PGANSGGMWFGPRLa, GenScript United States Inc.), TcPK1-2 ([…]a), TcCAPA-1([…]a, PepMicCo. Ltd., Suzhou, China), TcCAPA-2 (RIGKMVSFPRIa); MsPBAN (TRTRYFSPRLa), Pyrokinin2-1 (HVVNFTPRLa, Biomatik, United States), DmETH1 (DDSSPGFFLKITKNVPRLa) and DmETH2 (GENFAIKNLKTIPRIa).
# (§2) The functional analysis of the AgETH receptors was performed based on the previous description with modifications ([Park et al., 2003]; [Kim et al., 2014]; [Jiang et al., 2016]). The expression vector pcDNA 3.1 (+) (Invitrogen, Carlsbad, CA, United States), including the open reading frame (ORF) for each AgETHR-A and AgETHR-B, was transiently transfected into the CHO cells with a codon-optimized human apoaequorin-containing plasmid ([Vernon and Printen, 2002]) by using TransIT®-2020 (Mirus, Madison, WI, United States). […] The Kozak sequence for the mammalian Kozak consensus sequence ‘GCCACC’ at the 5' ends of each ORF for each AgETHR-A and AgETHR-B was […], allowing for successful functional expression. After approximately 24–28 h, transfected cells were harvested and prepared for the calcium mobilization assay by incubating in assay media DMEM/F12, including coelenterazine h (final concentration 5 μm; AAT Bioquest, Sunnyvale, CA, United States). Different concentrations of synthetic neuropeptides, including AgETH1, AgETH2, and ETH-related neuropeptides (PRXamides), were prepared in a 96-well plate, upon which the transfected cells (~15,000 cells in 50 μl) were applied. The value of luminescence, the indicator or calcium mobilization, was integrated over time for 20 s and normalized to the treatment of either 0.1 or 1 μm of each AgETH1 and AgETH2 positive control response and negative control background values.
# AgETHR-A = assay: Calcium mobilization assay (aequorin luminescence) with heterologously expressed AgETHR-A; assay type: cell-based, Anopheles gambiae; conditions: for agonistic activity normalized by the activity of AgETH1 / response of AgETHR-A (in words) / concentration of maximum response (at the level over) / lowest activating concentration (receptor not activated lower than) / response/sensitivity of AgETHR-A to own ETHs (in words): AgETHR-A; for agonistic activity normalized by the activity of AgETH1: CHO cells, normalized to AgETH1; for response of AgETHR-A (in words): 0.1 and 1 μm; for EC50: AgETHR-A in CHO cells, calcium mobilization, luminescence integrated 20 s, at least three replicates; for concentration of maximum response (at the level over) / lowest activating concentration (receptor not activated lower than) / response/sensitivity of AgETHR-A to own ETHs (in words): dose-response
# Text: as §1, §2
# TcETHR-B = conditions: out of 70 peptides, ref Jiang et al., 2015; cited from earlier work
Substance,agonistic activity normalized by the activity of AgETH2 (AgETHR-B; 0.1 μM peptide) [%],agonistic activity normalized by the activity of AgETH2 (AgETHR-B; 1 μM peptide) [%],agonistic activity normalized by the activity of AgETH1 (AgETHR-A; 0.1 μM peptide) [%],agonistic activity normalized by the activity of AgETH1 (AgETHR-A; 1 μM peptide) [%],response of AgETHR-A (in words) (AgETHR-A),also measured
"RIGKMVSFPRIa [TcCAPA-2, synthetic insect neuropeptide, CAPA]",0,2,-24,-4,,
"HVVNFTPRLa [Pyrokinin2-1, synthetic insect neuropeptide with PRXamide (Biomatik)]",1,-1,-21,-4,,
"FFMKASKSVPRIa [TcETH2, T. castaneum ETH]",109,107,57,86,responded,agonist activity (in words) (TcETHR-B): agonist activity
"TPHESSVPNERNDDSKETYFWFGPRLa [TcPK-1-2, synthetic insect neuropeptide with PRXamide]",1,-2,-13,-3,,
"TRTRYFSPRLa [MsPBAN, synthetic insect neuropeptide with PRXamide]",0,-2,-21,-3,,
"GENFAIKNLKTIPRIa [DmETH2, D. melanogaster ETH]",83,102,-14,2,small or no response,response of AgETHR-B relative to other ETHs (in words) (AgETHR-B): relatively lower responses
"EPKEPKRNKLASVYALTPSLRVa [TcCAPA-1, synthetic insect neuropeptide, CAPA (PepMicCo)]",0,-2,-22,-4,,
"SESPGFIKLSKSVPRIa [AgETH1, Anopheles gambiae ecdysis triggering hormone 1, synthetic (NEOBiolab)]",97,98,100,100,,EC50 (AgETHR-B): 4.5 nM; higher sensitivity of AgETHR-B than AgETHR-A (AgETHR-B): 28 times; concentration of maximum response (at the level over) (AgETHR-B): over 100 nm; lowest activating concentration (receptor not activated lower than) (AgETHR-B): ≥ 0.1 nm; response/sensitivity of AgETHR-B to own ETHs (in words) (AgETHR-B): dose-dependent responses; response/sensitivity of AgETHR-B to own ETHs (in words) (AgETHR-B; listed as AgETH-1): sensitive; EC50 (AgETHR-A): 127 nM; concentration of maximum response (at the level over) (AgETHR-A): over 10 um; lowest activating concentration (receptor not activated lower than) (AgETHR-A): ≥ 3 nm; response/sensitivity of AgETHR-A to own ETHs (in words) (AgETHR-A): dose-dependent responses; response/sensitivity of AgETHR-A to own ETHs (in words) (AgETHR-A; listed as AgETH-1): sensitive
"DDSSPGFFLKITKNVPRLa [DmETH1, D. melanogaster ETH]",105,98,138,102,responded,
"GDLENFFLKQSKSVPRIa [AgETH2, Anopheles gambiae ecdysis triggering hormone 2, synthetic (GenScript)]",100,100,24,69,,EC50 (AgETHR-B): 2.2 nM; higher sensitivity of AgETHR-B than AgETHR-A (AgETHR-B): 320 times; concentration of maximum response (at the level over) (AgETHR-B): over 100 nm; lowest activating concentration (receptor not activated lower than) (AgETHR-B): ≥ 0.03 nm; response/sensitivity of AgETHR-B to own ETHs (in words) (AgETHR-B): dose-dependent responses; response/sensitivity of AgETHR-B to own ETHs (in words) (AgETHR-B; listed as AgETH-2): sensitive; EC50 (AgETHR-A): 703 nM; concentration of maximum response (at the level over) (AgETHR-A): over 100 um; lowest activating concentration (receptor not activated lower than) (AgETHR-A): ≥ 10 nm; response/sensitivity of AgETHR-A to own ETHs (in words) (AgETHR-A): dose-dependent responses; response/sensitivity of AgETHR-A to own ETHs (in words) (AgETHR-A; listed as AgETH-2): sensitive
"PGANSGGMWFGPRLa [TcPK-1-1, synthetic insect neuropeptide with PRXamide (GenScript)]",1,-3,-18,-2,,
"ENYVLKAAKNVPRIa [TcETH1, T. castaneum ETH]",81,104,-11,32,small or no response,agonist activity (in words) (TcETHR-B): agonist activity; response of AgETHR-B relative to other ETHs (in words) (AgETHR-B): relatively lower responses
